Source: patent publication US20070066587A1, “Substituted azetidine compounds, their preparation and use as medicaments” (LABORATORIOS DEL DR. ESTEVE S.A, priority 2004, published 2007)

Assays:
Type in all cases: in vivo
Male NMRI mice [1] = assay: Mouse tetrad model, hot plate analgesia, agonistic effect; settings: 5 mg/kg i.v., 15 minutes after injection
Description: (§1) Substances with affinity for cannabinoid receptors are known to produce a wide range of pharmacological effects. It is also known that intravenous administration of a substance with affinity for cannabinoid receptors in mice produces analgesia, hypothermia, sedation and catalepsy. Individually, none of these effects can be considered as proof that a tested substance has affinity for cannabinoid-receptors, since all of these effects are common for various classes of centrally active agents. However, substances, which show all of these effects, i.e. substances that are active in this so-called tetrad model are considered to have affinity for the cannabinoid receptors. It has further been shown that cannabinoid receptor antagonists are higly effective in blocking the effects of a cannabinoid agonist in the mouse tetrad model.
(§2) The tetrad model is described, for example, in the publication of A. C. Howlett et al, International Union of Pharmacology XXVII. […]
(§3) Before testing in the behavioral procedures given below, mice are acclimatized to the experimental setting. Pre-Treatment control values are determined for analgesia hot plate latency (in seconds), rectal temperature, sedation and catalepsy.
(§4) In order to determine the agonistic activty of the substance to be tested, the mice are injected intravenously with the substance to be tested or the vehicle alone. 15 minutes after injection, latency in hot plate analgesia is measured. Rectal temperature, sedation and catalepsy are measured 20 minutes after injection.
The hot plate analgesia is determined according to the method described in Woolfe D. et al. “The evaluation of analgesic action of pethidine hydrochloride (Demerol)”, J. Pharmacol. Exp. Ther. 80, 300-307, 1944. […]
The mice are placed on a hot plate (Harvard Analgesimeter) at 55±0.5° C. until they show a painful sensation by licking their paws or jumping and the time for these sensations to occur is recorded. This reading is considered the basal value (B). […]
The degree of analgesia is calculated from the formula: % MPE of Analgesia=(PT-B)/(PC-B)×100 MPE=Maximum possible effect.

Male NMRI mice [2] = assay: Mouse tetrad model, hypothermia, agonistic effect; settings: 5 mg/kg i.v., 20 minutes after injection
Description: as §1
(§5) The tetrad model is described, for example, in the publication of A. C. Howlett et al, International Union of Pharmacology XXVII. Classification of Cannabinoid Receptors, Pharmacol Rev 54, 161-202, 2002 and David R. Compton et al., “In-vivo Characterization of a Specific Cannabinoid Receptor Antagonist (SR141716A): Inhibition of Tetrahydrocannbinol-induced Responses and Apparent Agonist Activity”, J. Pharmacol. Exp. Ther. 277 , 2, 586-594, 1996. The corresponding parts of the description are hereby incorporated by reference.
(§6) Male NMRI mice with a weight of 20-30 g (Harlan, Barcelona, Spain) are used in all of the following experiments.
as §3, §4
Hypothermia is determined according to the method described in David R. Compton et al. “In-vivo Characterization of a Specific Cannabinoid Receptor Antagonist (SR141716A) Inhibition of Tetrahydrocannbinol-induced Responses and Apparent Agonist Activity”, J. Pharmacol Exp Ther. 277, 2, 586-594, 1996. The respective description is hereby incorporated by reference and forms part of the present disclosure.
The base-line rectal temperatures are determined with a thermometer (Yello Springs Instruments Co., Panlabs) and a thermistor probe inserted to 25 mm before the administration of the substance to be tested. Rectal temperature is again measured 20 minutes after the administration of the substances to be tested. The temperature difference is calculated for each animal, whereby differences of ≧−2° C. are considered to represent activity.

Male NMRI mice [3] = assay: Mouse tetrad model, catalepsy, agonistic effect; settings: 5 mg/kg i.v., 20 minutes after injection
Description: as §1, §5, §6, §3, §4
Catalepsy is determined according to the method described in Alpermann H. G. et al. “Pharmacological effets of Hoe 249: A new potential antidepressant”, Drugs Dev. Res. 25, 267-282. 1992. The respective description is hereby incorporated by reference and forms part of the present disclosure.
The cataleptic effect of the substance to be tested is evaluated according to the duration of catalepsy, whereby the animals are placed head downwards with their kinlegs upon the top of the wooden block.
The chosen scoring system is:
The percentage of catalepsy is determined according ot the following formula: % Catalepsy=arithmetic mean/6×100

Male NMRI mice [4] = assay: Mouse tetrad model, sedation, agonistic effect; settings: 5 mg/kg i.v., 20 minutes after injection
Description: as §1, §5, §6, §3, §4
Determination of Sedation and Ataxia
Sedation and ataxia is determined according to the method described in Desmet L. K. C. et al. “Anticonvulsive properties of Cinarizine and Flunarizine in Rats and Mice”, Arzneim.-Forsch. (Frug Res) 25, 9, 1975. The respective description is hereby incorporated by reference and forms part of the present disclosure.
The chosen scoring system is
2: obvious calmness and quiet;
prior to as well as after treatment.
(§7) The percentage of sedation is determined according to the formula: % of sedation=arithmetic mean/3×100

Male NMRI mice [5] = assay: Mouse tetrad model, hypothermia, antagonistic effect against Win 55212-2; settings: 5 mg/kg i.v. prior to Win 55212-2 1.25 mg/kg i.v.
Description: as §1, §2, §3
In order to determine the antagonistic activity the identical procedure is used as for the determination of the agonistic effects, but with the difference that the substance to be evaluated for its antagonistic activity is injectected 5 minutes before the intravenous injection of 1.25 mg/kg Win-55,212 a known cannabinoid-receptor agonist.
Hypothermia is determined according to the method described in David R. Compton et al. “In-vivo Characterization of a Specific Cannabinoid Receptor Antagonist (SR141716A) Inhibition of Tetrahydrocannbinol-induced Responses and Apparent Agonist Activity”, J. Pharmacol Exp Ther. 277, 2, 586-594, 1996. […]
The base-line rectal temperatures are determined with a thermometer (Yello Springs Instruments Co., Panlabs) and a thermistor probe inserted to 25 mm before the administration of the substance to be tested. […]

Male NMRI mice [6] = assay: Mouse tetrad model, sedation, antagonistic effect against Win 55212-2; settings: 5 mg/kg i.v. prior to Win 55212-2 1.25 mg/kg i.v.
Description: as §1, with “It has further been shown that cannabinoid receptor antagonists are higly effective in blocking the effects of a cannabinoid agonist in the mouse tetrad model.” left out
as §3
In order to determine the antagonistic activity the identical procedure is used as for the determination of the agonistic effects, but with the difference that the substance to be evaluated for its antagonistic activity is injectected 5 minutes before the intravenous injection of 1.25 mg/kg Win-55,212 a known cannabinoid-receptor agonist. […]
as §7

Row | Structure (SMILES) | Agonistic effect A: Hot-Plate test (Male NMRI mice [1]) | Agonistic effect B: Hypothermia (Male NMRI mice [2]) | Agonistic effect C: Catalepsy (Male NMRI mice [3]) | Agonistic effect D: Sedation (Male NMRI mice [4]) | Antagonistic Effect B: Hypothermia (Male NMRI mice [5]) | Antagonistic Effect D: Sedation (Male NMRI mice [6])
1 | C[C@@H]1[C@@H](OS(=O)(=O)c2ccc(F)cc2)CN1C(c1ccc(Cl)cc1)c1ccc(Cl)cc1 (relative stereo) [Example 1, 4-Fluoro-benzenesulfonic acid 1-[trans-bis-(4-chloro-phenyl)-methyl]-2-methyl-azetidin-3-yl ester] | 5 | 0 | 0 | 0 | 100 | 20
2 | C[C@@H]1[C@@H](NS(=O)(=O)c2ccc(S(C)(=O)=O)cc2)CN1C(c1ccc(Cl)cc1)c1ccc(Cl)cc1 (relative stereo) [Example 14, N-{trans-1-[Bis-(4-chloro-phenyl)-methyl]-2-methyl-azetidin-3-yl}-4-methylsulfonyl-benzenesulfonamide] | – | 0 | 0 | 0 | – | 9
3 | C[C@@H]1[C@@H](NS(=O)(=O)c2cccc3nsnc23)CN1C(c1ccc(Cl)cc1)c1ccc(Cl)cc1 (relative stereo) [Example 15, 2,1,3-Benzothiadiazole-4-sulfonic acid {trans-1-[bis-(4-chloro-phenyl)-methyl]-2-methyl-azetidin-3-yl}-amide] | – | 0 | 0 | 0 | 100 | –
4 | C[C@H]1[C@H](NS(=O)(=O)c2ccc(F)cc2)CN1C(c1ccc(Cl)cc1)c1ccc(Cl)cc1 [Example 5, N-{(2S,3R)-1-[Bis-(4-chloro-phenyl)-methyl]-2-methyl-azetidin-3-yl}-4-fluoro-benzenesulfonamide] | 2 | 0 | 0 | 0 | 100 | –
5 | C[C@H]1[C@H](NS(=O)(=O)c2cccs2)CN1C(c1ccc(Cl)cc1)c1ccc(Cl)cc1 [Example 6, Thiophene-2-sulfonic acid {(2S,3R)-1-[bis-(4-chloro-phenyl)-methyl]-2-methyl-azetidin-3-yl}-amide] | 0 | 0 | 0 | 0 | – | –
